Counter-ions that a name gives are not always drawn.
Key:
[1] = biological target: T1, JAK3 tyrosine kinase (Homo sapiens, UniProt P52333); assay: Test 1: inhibitory activity to JAK3 tyrosine kinase (ELISA); type: biochemical; conditions: 25 μM ATP in substrate solution, 30° C. for 1 hour, n=2
T1 construct: purchased Carnabioscience Co
T1 sequence (P52333 1-1124): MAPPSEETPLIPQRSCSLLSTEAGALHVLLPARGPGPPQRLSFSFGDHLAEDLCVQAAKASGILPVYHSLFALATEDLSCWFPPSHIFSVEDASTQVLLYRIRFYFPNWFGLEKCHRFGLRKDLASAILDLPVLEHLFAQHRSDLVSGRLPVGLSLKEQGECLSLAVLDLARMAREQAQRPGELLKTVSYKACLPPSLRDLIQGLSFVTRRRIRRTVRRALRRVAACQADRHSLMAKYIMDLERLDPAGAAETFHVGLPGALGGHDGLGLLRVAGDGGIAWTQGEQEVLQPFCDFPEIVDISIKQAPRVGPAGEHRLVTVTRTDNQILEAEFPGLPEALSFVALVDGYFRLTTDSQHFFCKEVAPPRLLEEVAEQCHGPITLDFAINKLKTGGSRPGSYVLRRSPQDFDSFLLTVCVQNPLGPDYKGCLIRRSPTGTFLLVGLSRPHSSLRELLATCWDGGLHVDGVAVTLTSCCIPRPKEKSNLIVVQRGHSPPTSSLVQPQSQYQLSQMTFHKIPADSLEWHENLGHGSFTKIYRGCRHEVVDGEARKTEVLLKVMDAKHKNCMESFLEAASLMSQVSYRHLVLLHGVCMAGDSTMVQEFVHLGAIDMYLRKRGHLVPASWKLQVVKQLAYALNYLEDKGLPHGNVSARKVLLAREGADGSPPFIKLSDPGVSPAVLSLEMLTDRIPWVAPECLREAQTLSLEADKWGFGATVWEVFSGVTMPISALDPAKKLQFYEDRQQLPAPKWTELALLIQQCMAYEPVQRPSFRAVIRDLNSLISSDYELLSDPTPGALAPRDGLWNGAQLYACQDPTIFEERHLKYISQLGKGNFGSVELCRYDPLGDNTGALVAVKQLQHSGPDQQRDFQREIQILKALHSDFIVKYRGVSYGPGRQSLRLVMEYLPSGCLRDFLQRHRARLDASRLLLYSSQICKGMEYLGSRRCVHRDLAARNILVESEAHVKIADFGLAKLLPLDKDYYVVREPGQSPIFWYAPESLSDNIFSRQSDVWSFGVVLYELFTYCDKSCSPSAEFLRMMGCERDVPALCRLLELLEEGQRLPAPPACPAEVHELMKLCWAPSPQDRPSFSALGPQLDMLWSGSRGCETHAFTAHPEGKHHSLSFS
How it was run: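 ELISA of JAK3 kinase activity with absorbance read at 450 nm. Compounds were tested from DMSO dilution series at 100-fold the measurement concentrations (1000–0.01 μM), diluted up to 20 times in assay buffer, against a DMSO negative control. IC50 was estimated by non-linear regression of absorbance.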

[2] = biological target: T2, JAK2 tyrosine kinase (Homo sapiens, UniProt O60674); assay: Test 1: inhibitory activity to JAK2 tyrosine kinase (ELISA); type: biochemical; conditions: 25 μM ATP in substrate solution, 30° C. for 1 hour, n=2
T2 construct: purchased Carnabioscience Co
T2 sequence (O60674 whole entry): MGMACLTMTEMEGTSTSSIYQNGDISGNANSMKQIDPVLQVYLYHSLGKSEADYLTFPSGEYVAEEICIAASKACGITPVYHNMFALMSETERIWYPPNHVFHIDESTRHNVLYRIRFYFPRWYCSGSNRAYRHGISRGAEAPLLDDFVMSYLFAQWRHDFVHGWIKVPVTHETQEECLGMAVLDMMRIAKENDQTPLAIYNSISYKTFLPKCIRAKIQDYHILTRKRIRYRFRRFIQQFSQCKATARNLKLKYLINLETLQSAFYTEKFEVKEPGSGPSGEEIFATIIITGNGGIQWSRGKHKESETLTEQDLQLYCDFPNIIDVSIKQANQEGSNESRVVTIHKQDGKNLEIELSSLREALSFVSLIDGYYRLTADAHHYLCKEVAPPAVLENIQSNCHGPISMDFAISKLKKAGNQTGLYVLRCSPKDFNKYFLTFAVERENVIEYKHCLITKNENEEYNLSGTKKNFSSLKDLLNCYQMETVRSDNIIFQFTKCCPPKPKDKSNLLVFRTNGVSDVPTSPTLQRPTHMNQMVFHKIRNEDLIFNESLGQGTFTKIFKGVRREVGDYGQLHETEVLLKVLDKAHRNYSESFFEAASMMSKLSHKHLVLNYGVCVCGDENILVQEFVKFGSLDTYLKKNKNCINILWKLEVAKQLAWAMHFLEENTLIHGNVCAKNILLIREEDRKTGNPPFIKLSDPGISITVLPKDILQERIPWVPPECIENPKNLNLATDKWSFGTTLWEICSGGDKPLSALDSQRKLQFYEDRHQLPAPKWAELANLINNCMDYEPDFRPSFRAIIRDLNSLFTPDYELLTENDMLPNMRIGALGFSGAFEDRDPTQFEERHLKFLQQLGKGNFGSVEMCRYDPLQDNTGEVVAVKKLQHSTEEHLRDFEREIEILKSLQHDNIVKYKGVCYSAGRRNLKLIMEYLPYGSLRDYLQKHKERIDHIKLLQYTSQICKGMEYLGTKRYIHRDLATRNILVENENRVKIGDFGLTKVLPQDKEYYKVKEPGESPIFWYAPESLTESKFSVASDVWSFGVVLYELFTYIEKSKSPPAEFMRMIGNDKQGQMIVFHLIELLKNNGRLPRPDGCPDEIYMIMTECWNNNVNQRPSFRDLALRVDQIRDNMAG
Method: Test 1: Test for inhibitory activity to JAK2 and JAK3 tyrosine kinase 1. Preparation of Test Material
The test material was dissolved in dimethylsulfoxide (DMSO) to be 10 mM, and further diluted with DMSO to be 100-fold concentrations for measurement (1000, 300, 100, 30, 10, 3, 1, 0.3, 0.1, 0.03, 0.01 μM). In addition, solutions diluted with an assay buffer up to 20 times were used as solutions of the test material. As a negative control, a solution of DMSO diluted 20 times with an assay buffer was used. As the assay buffer, 15 mM Tris-Cl (pH 7.5), 0.01 v/v % Tween-20, and 1 mM dithiothreitol were used.
2. Measurement of the Activities of JAK2 and JAK3 Tyrosine Kinases
The activity was determined by ELISA. The solution of the test material (10 μl each; n=2) was placed in a streptavidine-coated 96 well plate (DELFIA Strip Plate 8×12 wells; Perkin Elmer), to which 20 μl each of substrate solution (625 nM biotin-labeled peptide substrate, 25 μM ATP, 25 mM MgCl2, 15 mM Tris-Cl (pH 7.5), 0.01 v/v % Tween-20, and 1 mM dithiothreitol), was added and stirred. Finally, 20 μl each of JAK2 tyrosine kinase (Carnabioscience Co.) (diluted to 0.75 nM with assay buffer) or JAK3 tyrosine kinase (Carnabioscience Co.) (diluted to 0.75 nM with assay buffer) was added, stirred and allowed to stand at 30° C. for 1 hour. The plate was washed 4 times with a washing buffer (50 mM Tris-Cl, pH 7.5, 150 mM NaCl, 0.02 v/v % Tween-20), and then a blocking buffer (0.1% Bovine Serum Albumin, 50 mM Tris-Cl, pH 7.5, 150 mM NaCl, 0.02 v/v % Tween-20)(150 μl each) was added for blocking at 30° C. for 30 minutes. Blocking buffer was removed, and there was added 100 μl each of horse radish peroxidase-labeled anti-phosphorylated tyrosin kinase antibody (BD Bioscience Co.) (diluted 10,000 times with blocking buffer). The plate was incubated at 30° C. for 30 minutes and then washed 4 times with a washing buffer, and 100 μl each of 3,3′,5,5′-tetramethylbenzidine (Sigma-Aldrich Co.) was added to develop color for 10 minutes. 0.1 M sulfuric acid (100 μl each) was added to stop the reaction. The absorbance was measured by means of a micro-plate reader (BIO-RAD; Model 3550) at 450 nm.
3. Analysis of the Results of the Measurement
The measured absorbance was subjected to a non-linear regression analysis by means of a SAS system (SAS Institute Inc.), and the concentration (IC50) of the test material which inhibited 50% of the activity of each tyrosine kinase was estimated.

SMILES | IC50 [1] | IC50 [2]
C[C@H](Nc1cc(C(=O)NCCCO)cc(Nc2cnccn2)n1)c1ccc(F)cc1 [Example 172, (S)-2-[1-(4-Fluorophenyl)ethylamino]-N-(3-hydroxypropyl)-6-(pyrazin-2-ylamino)isonicotinamide] | 150 nM | 0.85 nM
C[C@H](Nc1cc(C(=O)NC2CCC2)cc(Nc2cnccn2)n1)c1ccc(F)cc1 [Example 168, (S)—N-Cyclobutyl-2-[1-(4-fluorophenyl)ethylamino]-6-(pyrazin-2-ylamino)isonicotinamide] | 1300 nM | 17 nM
C[C@H](Nc1cc(-c2ccc(S(N)(=O)=O)cc2)cc(Nc2cnccn2)n1)c1ccc(F)cc1 [Example 126, (S)-4-{2-[1-(4-Fluorophenyl)ethylamino]-6-(pyrazin-2-ylamino)pyridin-4-yl}benzenesulfonamide] | 630 nM | 8.8 nM
C[C@H](Nc1nc(Nc2cnccn2)cc(-c2ccc(O)nc2)n1)c1ccc(F)cc1 [Example 26, (S)-5-{2-[1-(4-Fluorophenyl)ethylamino]-6-(pyrazin-2-ylamino)pyrimidin-4-yl}pyridin-2-ol] | 28 nM | 0.27 nM
C[C@H](Nc1nc(NCc2ccco2)cc(Nc2cnccn2)n1)c1ccc(F)cc1 [Example 103, (S)—N^2-[1-(4-Fluorophenyl)ethyl]-N^4-(furan-2-ylmethyl)-N^6-(pyrazin-2-yl)pyrimidine-2,4,6-triamine hydrochloride] | 310 nM | 4.1 nM
CC(C)NC(=O)C1CN(c2cc(Nc3cnccn3)nc(N[C@@H](C)c3ccc(F)cc3)n2)C1 [Example 191, (S)-1-{2-[1-(4-Fluorophenyl)ethylamino]-6-(pyrazin-2-ylamino)pyrimidin-4-yl}-N-isopropylazetidine-3-carboxamide] | 31 nM | 1.4 nM
C[C@H](Nc1nc(Nc2cnccn2)cc(N[C@H](CO)c2ccccc2)n1)c1ccc(F)cc1 [Example 86, (S)-2-{2-[(S)-1-(4-Fluorophenyl)ethylamino]-6-(pyrazin-2-ylamino)pyrimidin-4-ylamino}-2-phenylethanol] | 87 nM | 2.4 nM
C[C@H](Nc1nc(Nc2cnccn2)cc(N2CCC(C(=O)O)CC2)n1)c1ccc(F)cc1 [Example 85, (S)-1-{2-[1-(4-Fluorophenyl)ethylamino]-6-(pyrazin-2-ylamino)pyrimidin-4-yl}piperidine-4-carboxylic acid] | 20 nM | 0.51 nM
C[C@H](Nc1nc(Nc2cnccn2)cc(-c2nn[nH]n2)n1)c1ccc(F)cc1 [Example 75, (S)—N^2-[1-(4-Fluorophenyl)ethyl]-N^4-(pyrazin-2-yl)-6-(2H-tetrazol-5-yl)pyrimidine-2,4-diamine] | 630 nM | 12 nM
C[C@H](Nc1nc(Nc2cnccn2)cc(N2CC(C(=O)N3CCOCC3)C2)n1)c1ccc(F)cc1 [Example 196, (S)-(1-{2-[1-(4-Fluorophenyl)ethylamino]-6-(pyrazin-2-ylamino)pyrimidin-4-yl}azetidin-3-yl) (morpholino) methanone] | 35 nM | 0.64 nM
C[C@H](Nc1nc(Nc2cnccn2)cc(N2CCCC(O)C2)n1)c1ccc(F)cc1 (stereo partly drawn) [Example 73, 1-{2-[(S)-1-(4-Fluorophenyl)ethylamino]-6-(pyrazin-2-ylamino)pyrimidin-4-yl}piperidin-3-ol hydrochloride] | 48 nM | 1.3 nM
C[C@H](Nc1nc(NCc2ccncc2)cc(Nc2cnccn2)n1)c1ccc(F)cc1 [Example 108, (S)—N^2-[1-(4-Fluorophenyl)ethyl]-N^4-(pyrazin-2-yl)-N^6-(pyridin-4-ylmethyl)pyrimidine-2,4,6-triamine] | 56 nM | 1.1 nM
C[C@H](Nc1nc(Nc2cnccn2)cc(N2CCC(O)CC2)n1)c1ccc(F)cc1 [Example 71, (S)-1-{2-[1-(4-Fluorophenyl)ethylamino]-6-(pyrazin-2-ylamino)pyrimidin-4-yl}piperidin-4-ol hydrochloride] | 26 nM | 0.72 nM
